Source: US10494380B2, “Nitrogen-containing tricyclic derivatives having HIV replication inhibitory activity” (priority 2015, dated 2019)
Like-named read-outs stand apart in the source and are kept apart here.

Tests used:
[1] = system: sheep red blood cells (RBC); test: Photohemolysis test (Test Example 13); type: cell-based; conditions: 0.0008 to 0.1 w/v %, 10 J/cm2 UV-irradiation (290-400 nm)
Source text: Aliquots of sheep red blood cells (RBC) suspension prepared with medium to make a 2.5 v/v % concentration are dispensed into microplates. The compound of the present invention was desolved with a vehicle to make target concentrations and then these solutions were immediately added (in concentrations of 0.0008 to 0.1 w/v %) into the microplates. The mixtures on the microplates were exposed to 10 J/cm2 of UV-irradiation (UV-A and UV-B, 290-400 nm) with a GL20SE lamp (SANKYO DENKI) and a FL20S-BLB lamp (Panasonic). After the UV-irradiation, the mixtures were centrifuged. Aliquots of supernatant were transferred to a microplate. Absorbance of the supernatants was measured at 540 nm and 630 nm for judgement of the potential of phototoxicity. In the study, two endpoints were evaluated in biomembrane impairment (% of photohemolysis index; PI) and hyperoxidation of lipid membrane (methemoglobin formation; met-Hb) with the absorbance at 540 nm and 630 nm, respectively. PI and met-Hb were assessed based on the negative criteria (−), PI<10% and changes in absorbance at 630 nm<0.05, respectively. All else was judged as positive (+).

[2] = system: T125A mutant virus (HIV-1 NL-432 recombinant molecular clone, IN gene); test: HIV replication inhibition assay against integrase 124/125 mutant virus (Test Example 2); type: cell-based
How it was run: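 MT-4 cells (2.5×10^4 per well) infected with 60 pfu of 293T-derived HIV-1 NL-432 clone carrying integrase 124/125 point mutations, in presence of compound, cultured 4 days at 37 °C. Viability by MTT formazan at 560/690 nm; EC50 = concentration inhibiting 50% of virus-induced cytotoxicity.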

HIV (HTLV-IIIB strain) = test: HIV replication inhibition assay (Test Example 1; MT-4 cells, MTT); type: cell-based; conditions: MT-4 cells, MTT; for EC50: read-out: EC50; for EC90: read-out: EC90
Experimental: HIV (HTLV-IIIB strain) persistent infected human T cell strain Molt-4 clone8 was cultured in RPMI-1640 medium supplemented with 10% fetal bovine serum and the supernatant was filtered, then the virus titer was measured and stored at −80° C. Each anti-human immunodeficiency virus active substance was diluted with the above culture medium to the designated concentration, which was dispensed into 96-well microtiter plate by 50 μL. Next, 100 μL of MT-4 cell suspension (2.5×10^4 cells) was dispensed into each well, then 50 μl of the above HIV-containing supernatant diluted with the above culture medium was added thereto (60 pfu (plaque forming unit)).
Cell mixture was cultured at 37° C. in CO2 incubator for four days, then 30 μL of MTT (3-(4,5-dimethylthiazole-2-yl)-2,5-diphenyltetrazolyum bromide) reagent (5 mg/mL in PBS) was added to all wells followed by incubation for 1 hour. In this step, MTT was reduced to insoluble formazan in living cells. To elute generated formazan 150 μL of the culture supernatant was removed from all wells, then 150 μL of cell lysis solution (10% Triton X-100 and 0.4% (v/v)-HCl containing isopropanol) was added thereto, followed by shaking with a plate mixer. The formazan was measured with micro plate reader at OD: 560 nm and 690 nm (reference wavelength) and the result was compared with the reference wells. EC50 and EC90 mean the compound concentration at which cytotoxicity caused by virus infection is inhibited 50% and 90%, respectively.

HIV = type: cell-based; conditions: EC50 in the presence of human serum (25%) versus without human serum, MT-4 cells
How it was run: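 Compound is preincubated 1 h at room temperature with human serum, or with medium alone as the serum-free control. MT-4 cells infected with HIV (1 h, 37° C) are added and cultured 4 days. EC50 is determined with and without serum; their ratio gives the potency shift.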

CYP3A4 = CYP3A4 (Homo sapiens (Human), UniProt P08684); test: CYP3A4 (MDZ) MBI test (Test Example 6); conditions: pooled human liver microsomes, midazolam 1-hydroxylation, preincubation 0 or 30 min
CYP2C9 = CYP2C9 (Homo sapiens (Human), UniProt P11712); test: CYP inhibition assay, tolbutamide methyl-hydroxylation (Test Example 4); type: in vitro ADME; conditions: pooled human hepatic microsome, 100 μmol/L tolbutamide, 15 minutes, 37° C.
Experimental: Using commercially available pooled human hepatic microsome, and employing, as markers, 7-ethoxyresorufin O-deethylation (CYP1A2), tolbutamide methyl-hydroxylation (CYP2C9), mephenytoin 4′-hydroxylation (CYP2C19), dextromethorphan O-demethylation (CYP2D6), and terfenadine hydroxylation (CYP3A4) as typical substrate metabolism reactions of human main five CYP enzyme forms (CYP1A2, 2C9, 2C19, 2D6, 3A4) an inhibitory degree of each metabolite production amount by a test compound was assessed.
The reaction conditions were as follows: substrate, 0.5 μmol/L ethoxyresorufin (CYP1A2), 100 μmol/L tolbutamide (CYP2C9), 50 μmol/L S-mephenytoin (CYP2C19), 5 μmol/L dextromethorphan (CYP2D6), 1 μmol/L terfenedine (CYP3A4); reaction time, 15 minutes; reaction temperature, 37° C.; enzyme, pooled human hepatic microsome 0.2 mg protein/mL; test drug concentration, 1, 5, 10, 20 μmol/L (four points).
Each five kinds of substrates, human hepatic microsome, and a test drug in 50 mmol/L Hepes buffer as a reaction solution was added to a 96-well plate as the composition ad described above, NADPH, as a coenzyme was added to initiate metabolism reactions as markers and, after the incubation at 37° C. for 15 minutes, a methanol/acetonitrile=1/1 (V/V) solution was added to stop the reaction. After the centrifugation at 3000 rpm for 15 minutes, resorufin (CYP1A2 metabolite) in the supernatant was quantified by a fluorescent multilabel counter and tolbutamide hydroxide (CYP2C9 metabolite), mephenytoin 4′ hydroxide (CYP2C19 metabolite), dextrorphan (CYP2D6 metabolite), and terfenadine alcohol (CYP3A4 metabolite) were quantified by LC/MS/MS.

[3] = Human immunodeficiency virus 1, MT4, read-out: EC50 against T125A mutant virus, T125A mutant virus (HIV-1 NL-432 IN gene), MT-4 cells, MTT
[4] = Human immunodeficiency virus 1, MT4, 96 h, HIV (HTLV-IIIB strain), four days
[5] = T125A mutant virus (HIV-1 NL-432 IN gene), MT-4 cells, MTT, read-out: EC50 against T125A mutant virus
[6] = HIV (HTLV-IIIB strain), four days
[7] = HIV HTLV-IIIB strain, cultured four days

CYP2C9, sequence (P11712 whole entry): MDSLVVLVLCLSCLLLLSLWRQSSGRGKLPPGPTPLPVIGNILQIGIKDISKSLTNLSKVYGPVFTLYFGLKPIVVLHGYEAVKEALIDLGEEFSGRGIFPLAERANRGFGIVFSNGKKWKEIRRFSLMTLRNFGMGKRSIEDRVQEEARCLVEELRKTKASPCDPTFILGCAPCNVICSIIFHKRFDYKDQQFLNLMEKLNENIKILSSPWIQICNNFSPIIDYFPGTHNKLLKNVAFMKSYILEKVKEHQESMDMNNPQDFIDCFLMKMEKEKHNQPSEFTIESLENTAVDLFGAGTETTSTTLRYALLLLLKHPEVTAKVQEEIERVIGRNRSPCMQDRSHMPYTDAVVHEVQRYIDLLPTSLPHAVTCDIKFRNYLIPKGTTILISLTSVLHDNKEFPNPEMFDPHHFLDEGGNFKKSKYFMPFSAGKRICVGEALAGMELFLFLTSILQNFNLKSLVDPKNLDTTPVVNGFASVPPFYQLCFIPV
CYP3A4, sequence (P08684 whole entry): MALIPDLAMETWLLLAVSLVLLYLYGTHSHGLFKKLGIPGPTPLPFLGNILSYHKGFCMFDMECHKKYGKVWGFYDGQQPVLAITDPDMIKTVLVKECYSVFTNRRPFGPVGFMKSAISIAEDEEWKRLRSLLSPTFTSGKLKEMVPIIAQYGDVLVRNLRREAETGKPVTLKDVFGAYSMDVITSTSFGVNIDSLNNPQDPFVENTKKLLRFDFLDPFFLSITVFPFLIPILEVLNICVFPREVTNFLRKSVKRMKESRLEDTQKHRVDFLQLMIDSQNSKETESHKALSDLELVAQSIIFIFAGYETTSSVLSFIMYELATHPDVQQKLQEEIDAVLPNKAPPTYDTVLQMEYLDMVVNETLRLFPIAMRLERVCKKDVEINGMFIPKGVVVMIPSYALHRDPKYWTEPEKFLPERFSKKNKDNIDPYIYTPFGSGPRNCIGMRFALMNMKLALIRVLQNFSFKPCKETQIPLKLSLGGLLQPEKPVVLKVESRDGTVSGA

Structure (SMILES)	Photohemolysis test, potential of phototoxicity (PI and met-Hb) [1]	EC50 [2, 3]	EC50 (HIV (HTLV-IIIB strain); [4])	EC90 (HIV (HTLV-IIIB strain); [4])	Potency shift value (HIV)	CYP3A4 (MDZ) MBI, shifted IC (CYP3A4)	EC50 [2, 5]	EC50 (HIV (HTLV-IIIB strain); [6])	EC90 (HIV (HTLV-IIIB strain); [6])	IC50 (CYP2C9)	EC50 (HIV (HTLV-IIIB strain); [7])
Cc1ccc(-c2c([C@H](OC(C)(C)C)C(=O)O)c(C)c3c4c2cc(C)n4CCN3C)cc1 [Compound I-001]	(−) (negative criteria (−), PI<10% and changes in absorbance at 630 nm<0.05, respectively)	4.7 nM	0.69 nM	1.1 nM	13	–	–	–	–	–	–
Cc1ccc(-c2c([C@H](OC(C)(C)C)C(=O)O)c(C)c3c4c2cc(C)n4CCN3S(C)(=O)=O)cc1 [Compound I-003]	(−) (negative criteria (−), PI<10% and changes in absorbance at 630 nm<0.05, respectively)	8.9 nM	1.3 nM	1.7 nM	14	(−) (When a shifted IC was 1.0 or less, this was defined as negative)	–	–	–	–	–
Cc1c([C@H](OC(C)(C)C)C(=O)O)c(-c2ccc(Cl)cc2)c2cc(C)n3c2c1N(C)CC3 [Compound I-012]	(−) (negative criteria (−), PI<10% and changes in absorbance at 630 nm<0.05, respectively)	3.8 nM	0.77 nM	1.1 nM	13	–	–	–	–	–	–
Cc1c([C@H](OC(C)(C)C)C(=O)O)c(-c2ccc(Cl)cc2)c2cc(C)n3c2c1N(S(C)(=O)=O)CC3 [Compound I-019]	–	–	–	–	16	(−) (When a shifted IC was 1.0 or less, this was defined as negative)	6.6 nM	1.2 nM	1.6 nM	–	–
COCCN1CCn2c(C)cc3c(-c4ccc(C)cc4)c([C@H](OC(C)(C)C)C(=O)O)c(C)c1c32 [Compound I-026]	–	13 nM	0.99 nM	1.6 nM	13	–	–	–	–	> 20000 nM	–
Cc1c([C@H](OC(C)(C)C)C(=O)O)c(-c2ccc(F)cc2)c2cc(C)n3c2c1N(C)CC3 [Compound I-048]	(−) (negative criteria (−), PI<10% and changes in absorbance at 630 nm<0.05, respectively)	11 nM	1.2 nM	1.5 nM	9.2	–	–	–	–	> 20000 nM	–
Cc1c([C@H](OC(C)(C)C)C(=O)O)c(-c2ccc(Cl)cc2)c2cc(C)n3c2c1N(c1ncccn1)CC3 [Compound I-085]	(−) (negative criteria (−), PI<10% and changes in absorbance at 630 nm<0.05, respectively)	–	–	–	22	–	3.7 nM	0.54 nM	0.58 nM	–	–
Cc1c([C@H](OC(C)(C)C)C(=O)O)c(-c2ccc(Cl)cc2)c2cc(C)n3c2c1N(CCN(C)C)[C@H](C)C3 [Compound I-112]	(−) (negative criteria (−), PI<10% and changes in absorbance at 630 nm<0.05, respectively)	18 nM	4.9 nM	11 nM	3.5	–	–	–	–	> 20000 nM	–
Cc1nc(N2CCn3c(C)cc4c(-c5ccc(Cl)cc5)c([C@H](OC(C)(C)C)C(=O)O)c(C)c2c43)no1 [Compound I-176]	(−) (negative criteria (−), PI<10% and changes in absorbance at 630 nm<0.05, respectively)	–	–	–	12	(−) (When a shifted IC was 1.0 or less, this was defined as negative)	4.6 nM	–	5.6 nM	–	2.3 nM
Cc1ccc(-c2c([C@H](OC(C)(C)C)C(=O)O)c(Cl)c3c4c2cc(C)n4CCN3C)cc1 [Compound I-187]	–	–	–	–	11	(−) (When a shifted IC was 1.0 or less, this was defined as negative)	4.8 nM	–	2.2 nM	–	1 nM
CCOc1cnc(N2CCn3c(C)cc4c(-c5ccc(C)cc5)c([C@H](OC(C)(C)C)C(=O)O)c(C)c2c43)nc1 [Compound I-197]	(−) (negative criteria (−), PI<10% and changes in absorbance at 630 nm<0.05, respectively)	–	1.3 nM	2.2 nM	32	–	–	–	–	> 20000 nM	–
Cc1ccc(-c2c([C@H](OC(C)(C)C)C(=O)O)c(C)c3c4c2cc(C)n4CCN3c2ncc(OCC3COC3)cn2)cc1 [Compound I-268]	–	4.8 nM	1.5 nM	2.1 nM	19	–	–	–	–	–	–
Cc1ccc(-c2c([C@H](OC(C)(C)C)C(=O)O)c(C)c3c4c2cc(C)n4CCN3c2ncc(N3CCOCC3)cn2)cc1 [Compound I-272]	–	4.3 nM	1.6 nM	2 nM	16	–	–	–	–	–	–
Cc1ccc(-c2c([C@H](OC(C)(C)C)C(=O)O)c(C)c3c4c2cc(C)n4CCN3c2ncc(OCCN3CCOCC3)cn2)cc1 [Compound I-276]	–	5.1 nM	1.5 nM	2.5 nM	5.9	–	–	–	–	–	–
Cc1ccc(-c2c([C@H](OC(C)(C)C)C(=O)O)c(C)c3c4c2cc(C)n4CCN3c2ncc(O[C@@H]3CCN(C)C3)cn2)cc1 [Compound I-279]	–	13 nM	5.1 nM	7.7 nM	3.5	–	–	–	–	–	–
Cc1ccc(-c2c([C@H](OC(C)(C)C)C(=O)O)c(C)c3c4c2cc(C)n4CCN3c2ncc(OCF)cn2)cc1 [Compound I-282]	–	4 nM	1.4 nM	2.1 nM	36	–	–	–	–	–	–
Cc1ccc(-c2c([C@H](OC(C)(C)C)C(=O)O)c(C)c3c4c2cc(C)n4CCN3c2ccc(C)nn2)cc1 [Compound I-287]	–	5.1 nM	1.4 nM	2.2 nM	12	–	–	–	–	–	–
